Measured values reported in patent US20220403327A1, “CUSTOMIZABLE 3D CELL CULTURE SYSTEM COMPRISING HYDROGEL-EMBEDDED CELLS AND USES THEREOF” (POLYVALOR, LIMITED PARTNERSHIP, priority 2019, published 2022).

Experiments:
Type in all cases: cell-based
[1] = system: bone metastases prostate (BMP4) patient-derived tumor cells; assay: Drug screening test: tumor migration on PP-EL plasma-coated PLA electrospun mats with patient-derived tumor cells; conditions: 0, 0.05, 0.1 and 0.5 μM, day 7 of cell culture, A1G7 hydrogel, triplicate
Procedure: FIG. 12C is a graph showing the measurement of the number of BMP4 tumor cells migrated to the surface of PP-EL plasma-treated PLA mats at different concentrations (0, 0.05, 0.1, or 0.5 μM) of Doxorubicin. Experiments were performed in triplicate and the error bars in the graph show the standard deviation.
The 3D cell culture system according to the present disclosure was also used to perform a doxorubicin screening tested with tumor cells derived from patients (bone metastases prostate (BMP4) patient-derived tumor cells) and a breast tumor cell line (MBA-MB231) in A1G7 hydrogel. In this experiment, the PLA scaffolds were coated with PP-EL, ethyl lactate (EL) plasma coating in atmospheric pressure, and captured at day 7 after culture. The results depicted in FIG. 12A indicate a significant difference in the appearance of primary BMP4 tumor cells and commercial tumor cell line in the images. The pictures show the 3D stack of the total mat layers (certain thickness) obtained by signal from cells.
The PP-EL plasma-coated PLA electrospun mats seeded with BMP4 tumor cells on A1G7 hydrogel on top, were loaded with various concentrations of Doxorubicin (0, 0.05, 0.1 and 0.5 μM) in triplicate, and tumor migration assessment was performed at day 7 of cell culture.

[2] = system: fibroblasts; assay: Drug screening test: stromal cells on nanofibrous PLA scaffolds of the 3D cell culture model; conditions: 0-2 μM; day 7; relative to samples from previous experiment without drug
Procedure: A drug screening setup was designed using the known anti-tumor drug Doxorubicin to assess tumor migration performance on the 3D cell culture model of the present disclosure. The plasma-treated PLA electrospun mats seeded with fibroblasts and tumor cells on […] hydrogel on top, were loaded with various concentrations of Doxorubicin (0, 0.05, 0.1, 0.5, 1 and 2 μM) in triplicate, and tumor migration assessment was performed at day 7 of cell culture. […] The experiment was done in triplicate and the error bars presented in the chart are based on standard deviation.

[3] = system: breast cancer cells; assay: Drug screening test: tumor migration on plasma-treated PLA electrospun mat 3D cell culture model; conditions: 0, 0.05, 0.1, 0.5, 1 and 2 μM in media; day 7 of cell culture; A1G7 hydrogel on fibroblast-seeded PLA mats; triplicate
Procedure: FIG. 11B is a graph showing the measurement of the number of tumor cells migrated to the surface of PLA mats at different concentrations (0, 0.05, 0.1, 0.5, 1 or 2 μM) of Doxorubicin. Experiments were performed in triplicate and the error bars in the graph show the standard deviation.
A drug screening setup was designed using the known anti-tumor drug Doxorubicin to assess tumor migration performance on the 3D cell culture model of the present disclosure. The plasma-treated PLA electrospun mats seeded with fibroblasts and tumor cells on A1G7 hydrogel on top, were loaded with various concentrations of Doxorubicin (0, 0.05, 0.1, 0.5, 1 and 2 μM) in triplicate, and tumor migration assessment was performed at day 7 of cell culture. […] The experiment was done in triplicate and the error bars presented in the chart are based on standard deviation.

COc1cccc2c1C(=O)c1c(O)c3c(c(O)c1C2=O)C[C@@](O)(C(=O)CO)C[C@@H]3O[C@H]1C[C@H](N)[C@H](O)[C@H](C)O1 [Doxorubicin]
BMP4 tumor cells migration [1]: dose-dependent inhibition
number of stromal cells (fibroblasts) on nanofibrous scaffolds [2]: reduced number of stromal cells
number of breast cancer cells that were able to migrate to the surface of scaffolds [3]: significant reduction
